We go through 17 molecules from patent publication US20160151380A1, “THERAPIES FOR DISEASES CAUSED BY ARTHROPOD-BORNE PARASITES” (THE REGENTS OF THE UNIVERSITY OF CALIFORNIA, priority 2013, published 2016).

One data set has as its target JNK3 (Homo sapiens, UniProt P53779). The conditions noted are these: cited from earlier work.
Another data set addresses JNK1 (Homo sapiens, UniProt P45983). The conditions noted are these: cited from earlier work.
The next data set deals with MAPK14 p38 (Homo sapiens, UniProt Q16539). The conditions noted are these: cited from earlier work.
Sequence of MAPK14 p38 (Q16539 whole entry): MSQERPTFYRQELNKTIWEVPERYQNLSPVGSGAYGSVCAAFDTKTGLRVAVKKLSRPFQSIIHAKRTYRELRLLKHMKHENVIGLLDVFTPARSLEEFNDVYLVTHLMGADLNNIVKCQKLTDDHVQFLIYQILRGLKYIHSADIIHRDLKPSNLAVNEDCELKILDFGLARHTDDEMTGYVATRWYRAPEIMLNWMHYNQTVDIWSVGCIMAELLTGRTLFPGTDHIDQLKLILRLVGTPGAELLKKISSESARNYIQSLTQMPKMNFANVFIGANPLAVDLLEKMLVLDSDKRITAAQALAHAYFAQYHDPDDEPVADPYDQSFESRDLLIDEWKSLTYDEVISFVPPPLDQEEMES
The next data set addresses T1, PKCepsilon (Homo sapiens, UniProt Q02156).
T1 sequence (Q02156 1-737): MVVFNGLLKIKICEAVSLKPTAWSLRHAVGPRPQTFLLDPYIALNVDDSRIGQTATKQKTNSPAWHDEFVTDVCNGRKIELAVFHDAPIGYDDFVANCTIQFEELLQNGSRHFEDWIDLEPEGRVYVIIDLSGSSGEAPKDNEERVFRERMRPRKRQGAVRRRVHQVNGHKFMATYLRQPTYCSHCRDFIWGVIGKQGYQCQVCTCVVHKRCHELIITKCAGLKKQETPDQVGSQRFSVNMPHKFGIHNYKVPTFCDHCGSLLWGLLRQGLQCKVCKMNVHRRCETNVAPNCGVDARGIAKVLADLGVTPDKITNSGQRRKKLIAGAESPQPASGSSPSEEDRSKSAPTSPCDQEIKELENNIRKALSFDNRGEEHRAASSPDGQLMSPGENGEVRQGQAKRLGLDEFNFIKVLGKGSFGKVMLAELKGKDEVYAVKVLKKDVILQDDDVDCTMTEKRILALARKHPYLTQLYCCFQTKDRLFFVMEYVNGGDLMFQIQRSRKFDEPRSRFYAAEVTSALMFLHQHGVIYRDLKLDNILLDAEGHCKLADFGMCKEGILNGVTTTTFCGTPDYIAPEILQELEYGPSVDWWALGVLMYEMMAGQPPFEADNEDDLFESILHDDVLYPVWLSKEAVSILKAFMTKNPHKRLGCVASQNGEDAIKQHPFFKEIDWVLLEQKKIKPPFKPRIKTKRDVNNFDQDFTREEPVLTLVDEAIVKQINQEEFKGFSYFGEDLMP
To be noted: PKCepsilon; cited from earlier work.

A further data set concerns anti-parasite genes. Briefly: Midgut expression of anti-parasite/immune genes in A. stephensi (quantitative PCR). It counts as in vivo, Anopheles stephensi. The conditions noted are these: fed killed lysate of P. falciparum with BIRB 796; 6 h post-feeding.
In data set [1] the test system is Plasmodium falciparum. Briefly: P. falciparum growth in vitro (flow cytometry). It counts as cell-based. The conditions noted are these: 1 μM or 10 μM, 48 h, relative to vehicle control.
In data set [2] the test system is Anopheles stephensi p38 MAPK. Briefly: MK2 phosphorylation in LPS-stimulated ASE cells (western blot). Format: cell-based. To be noted: ASE cells pre-incubated with 10 μM inhibitor, 2 h later 1 μg/ml LPS.
Data set [3] deals with Plasmodium falciparum. Nature of the data set: P. falciparum development in A. stephensi after supplemented bloodmeal (oocysts). It counts as in vivo. The conditions noted are these: 10 μM in bloodmeal. The protocol: Midguts were dissected and oocysts were counted at 10 days following infection. Dots in FIG. 3A and FIG. 3C represent oocyst numbers in one midgut, while percentage positive midguts or percentage of midguts with at least one oocyst are represented as means in FIG. 3B and FIG. 3D. Mean oocysts per midgut (lines, numbers on graph) were analyzed by ANOVA (alpha=0.05) for overall significance and by Student-Neuman-Keuls for pairwise comparisons using Graphpad Prism version 4.0 (San Diego, Calif.). Prevalences of mosquito infection (indicated on graph) were analyzed by chi-square (alpha=0.05).

The next data set concerns A. stephensi. Briefly: Mosquito lifespan, A. stephensi. It counts as in vivo, Anopheles stephensi. The conditions noted are these: 1 μM or 10 μM daily in water or once weekly via bloodmeal.
The test system of another data set is A. freeborni. Briefly: Mosquito lifespan, A. freeborni. Format: in vivo. To be noted: 1 μM or 10 μM daily in water or once weekly via bloodmeal.

“Also recorded” adds a separate entry of the source. Some results are limits rather than exact numbers.

Sequence of JNK1 (P45983 whole entry, species assumed): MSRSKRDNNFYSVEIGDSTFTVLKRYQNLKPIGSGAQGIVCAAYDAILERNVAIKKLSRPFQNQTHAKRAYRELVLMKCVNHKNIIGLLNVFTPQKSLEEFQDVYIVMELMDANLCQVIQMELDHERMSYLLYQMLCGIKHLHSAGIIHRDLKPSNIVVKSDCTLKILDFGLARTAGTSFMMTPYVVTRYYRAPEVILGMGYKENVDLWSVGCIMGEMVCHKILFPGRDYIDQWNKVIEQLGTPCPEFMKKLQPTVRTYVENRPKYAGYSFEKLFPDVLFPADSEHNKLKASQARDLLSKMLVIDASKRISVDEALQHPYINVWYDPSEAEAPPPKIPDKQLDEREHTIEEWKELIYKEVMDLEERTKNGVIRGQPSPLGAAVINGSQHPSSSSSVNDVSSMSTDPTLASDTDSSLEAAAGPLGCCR
Sequence of JNK3 (P53779 whole entry, species assumed): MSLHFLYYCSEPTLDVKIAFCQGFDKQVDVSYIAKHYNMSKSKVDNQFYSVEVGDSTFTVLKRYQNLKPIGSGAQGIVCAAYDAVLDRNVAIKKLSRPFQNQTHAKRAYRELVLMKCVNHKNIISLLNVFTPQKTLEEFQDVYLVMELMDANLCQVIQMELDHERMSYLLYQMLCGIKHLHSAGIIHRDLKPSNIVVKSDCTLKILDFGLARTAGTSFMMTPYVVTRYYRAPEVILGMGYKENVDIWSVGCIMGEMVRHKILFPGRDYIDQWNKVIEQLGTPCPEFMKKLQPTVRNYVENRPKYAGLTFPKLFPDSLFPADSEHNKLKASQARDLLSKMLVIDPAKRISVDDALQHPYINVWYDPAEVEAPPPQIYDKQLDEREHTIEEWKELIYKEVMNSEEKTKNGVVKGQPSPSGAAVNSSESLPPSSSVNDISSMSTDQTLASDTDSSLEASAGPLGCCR

Consider `Cc1n[nH]c2ccc(-c3cncc(OC[C@@H](N)Cc4c[nH]c5ccccc45)c3)cc12` [A 443654], for which the concentration for half-maximal inhibition (IC50) on JNK3 and on JNK1 was more than 900 nM in each case.
On to `Cc1ccc(C(=O)Nc2cccc(C(F)(F)F)c2)cc1-c1ccc2nc(NCCN3CCOCC3)ncc2c1` [AMG-47a], for which the IC50 at JNK3 was 145 nM; on MAPK14 p38, 3 nM.
In the case of `O=C(Nc1c[nH]nc1-c1nc2cc(CN3CCOCC3)ccc2[nH]1)NC1CC1` [AT9283], the half-inhibitory concentration (IC50) at JNK3, on JNK1, on PKCepsilon and on MAPK14 p38 was more than 100 nM throughout.
Consider `Cc1ccc(-n2nc(C(C)(C)C)cc2NC(=O)Nc2ccc(OCCN3CCOCC3)c3ccccc23)cc1` [BIRB 796, 1-[5-tert-butyl-2-(4-methylphenyl)pyrazol-3-yl]-3-[4-(2-morpholin-4-ylethoxy)naphthalen-1-yl]urea], for which, in the data set with anti-parasite genes, the “immune gene expression levels in midgut” value is “significantly different from controls”. In addition, the “P. falciparum growth in vitro (parasitemia)” value in the data set on Plasmodium falciparum [1] was “Neither inhibitor significantly altered parasite growth; also recorded: no activity”.
As for `COc1cc(N2CCOCC2)ccc1Nc1ncc(F)c(Nc2ccccc2NS(C)(=O)=O)n1` [CZC-25146], the half-maximal inhibitory concentration (IC50) at JNK3 and on JNK1 was less than 600 nM in each case.
As to `COc1ccc(N(C(=O)Nc2c(C)cccc2C)c2cc(Nc3ccc(N4CCN(C)CC4)cc3)ncn2)c(OC)c1` [HG-9-91-01], the IC50 on JNK3 is less than 800 nM; on MAPK14 p38 it was less than 600 nM.
For the molecule `CCS(=O)(=O)Nc1ccc2c(c1)/C(=C(/Nc1ccc(CN3CCCCC3)cc1)c1ccccc1)C(=O)N2` [Hesperadin], the equilibrium dissociation constant (Kd) on JNK3 and at JNK1 was less than 10 nM throughout.
With `CCCC(=O)NC1=NC2C(N=CN2C2OC3OP(=O)(O)OC3C2OC(=O)CCC)C(=O)N1` (stereo not drawn) [Kinome_3027], the results for the Ki on JNK3 and at JNK1 were 18 nM and 1 nM, respectively.
Regarding `O=C(O)[C@]1(Cc2cccc(Nc3nccs3)n2)CC[C@@H](Oc2cccc(Cl)c2F)CC1` [MK5108], the IC50 at JNK3 was more than 100 nM; on JNK1, more than 1000 nM; on PKCepsilon, more than 1000 nM.
Turning to `C[S+]([O-])c1ccc(-c2nc(-c3ccc(F)cc3)c(-c3ccncc3)[nH]2)cc1` (stereo not drawn) [SB203580, 4-[4-(4-fluorophenyl)-2-(4-methylsulfinylphenyl)-1H-imidazol-5-yl]pyridine], the “p38 MAPK activity in the mosquito in vivo” value in the data set with mosquito p38 MAPK is “significantly reduced”. Besides, the p-MK2 levels result in [2] is recorded as “undetectable”. The infection prevalence entry in the data set with Plasmodium falciparum [3] (10 days) is reported as “significantly reduced”. For the same molecule, the P. falciparum oocysts/midgut entry in the data set on Plasmodium falciparum [3] (oocysts counted at 10 days) was “significantly reduced”. The “P. falciparum growth in vitro (parasitemia)” value with Plasmodium falciparum [1] is given as “Neither inhibitor significantly altered parasite growth; also recorded: no such effects”.
In the case of `Oc1c2ccccc2c2c3c(cccc13)N=N2` [SP600125], the impact on lifespan result in the data set on A. stephensi and in the data set on A. freeborni was “no negative impact” in each case.
For the molecule `O=C(O)c1ccc2c(c1)nc(Nc1cccc(Cl)c1)c1ccncc12` [Silmitasertib], the concentration for half-maximal inhibition (IC50) on JNK3 and on JNK1 was more than 1000 nM each time.
Turning to `O=C1NCc2c1c1c3ccccc3[nH]c1c1[nH]c3ccccc3c21` [Staurosporine aglycone], the IC50 on JNK3 and at JNK1 was less than 100 nM in each case.
Consider `CCOC(=O)Cn1nc(C(F)F)cc1C` [SureCN7018367], for which the equilibrium dissociation constant (Kd) is less than 10 nM on JNK3 and less than 1250 nM at JNK1.
Take `CNC(=O)[C@@]1(N)C[C@H]2O[C@]1(C)n1c3ccccc3c3c4c(c5c6ccccc6n2c5c31)C(=O)NC4` [TTT-3002]: the half-inhibitory concentration (IC50) is less than 60 nM on JNK3 and less than 40 nM at JNK1.
On to `C=CC(=O)Nc1cccc(Oc2nc(Nc3ccc(N4CCN(C)CC4)cc3)ncc2Cl)c1` [WZ3146], for which the dissociation constant (Kd) on JNK3, at JNK1 and on PKCepsilon was more than 1000 nM each time.
With `C=CC(=O)Nc1cccc(Oc2nc(Nc3ccc(N4CCN(C)CC4)cc3OC)ncc2Cl)c1` [WZ4002], the dissociation constant (Kd) on JNK3, at JNK1 and on PKCepsilon was more than 1000 nM in each case.
